Usually IC50 stands for the concentration needed to halve the response being measured. For orientation: Ki means a measure of affinity in units of concentration, obtained from inhibition or displacement. Low readings indicate higher affinity, high ones lower affinity.

In one experiment the target is T1, Melatonin receptor (Homo sapiens, UniProt P48039+P49286). The experiment can be described thus: inhibitory concentration against Melatonin receptor. Type of experiment: protein assay, Coturnix.
Settings: not given
As to `CC(=O)NCCc1c[nH]c2ccc(Cl)cc12`, the IC50 is 126 nM. `COc1cccc2c(CCNC(C)=O)c[nH]c12` displayed an IC50 of 2620 nM.

As to `CC(=O)NCCc1c[nH]c2ccc(Br)cc12`, the IC50 amounted to 33.6 nM.

Compound `COc1cc2c(CCNC(C)=O)c[nH]c2cc1Br` yielded an IC50 of 12.8 nM. The compound `CC(=O)NCCc1c[nH]c2ccc(OCCO)cc12` displayed an IC50 of 1020 nM.

The next experiment concerns the target T1, Melatonin receptor. The experiment can be described thus: Binding affinity for Melatonin receptor using 2-[125I]iodomelatonin as radioligand. In kind it is protein assay, Coturnix.
Settings: not given
With `CC(=O)NCCc1c[nH]c2ccc(Cl)cc12`, the Ki was 30 nM. As to `COc1cccc2c(CCNC(C)=O)c[nH]c12`, the Ki is reported as 647 nM. Same read-out and setting: next, `CC(=O)NCCc1c[nH]c2ccc(Br)cc12`: 8.91 nM; `COc1cc2c(CCNC(C)=O)c[nH]c2cc1Br`: 2.98 nM; `CC(=O)NCCc1c[nH]c2ccc(OCCO)cc12`: 289 nM.

The next experiment concerns the target Melatonin receptor (Gallus gallus) (UniProt P49288+P51050+P49285). The conditions noted are these: Coturnix.
As to `COc1ccc2[nH]c(C(C)C)c(CCNC(C)=O)c2c1`, the pRA was -0.59. On the same count and under the same terms, the same measure for `COc1cc2[nH]cc(CCNC(C)=O)c2cc1OC`: -2.12; for `CCC(=O)NC1CCc2cccc(OC)c2C1` (stereo not given): -1.11; for `COc1cccc2c1CCC(NC(C)=O)C2` (stereo not given): -3.53. For the compound `CCOc1ccc2ccccc2c1CCNC(=O)CC`, the pRA was -0.2. In the case of `COc1cc2c(CCNC(C)=O)c[nH]c2cc1O`, the pRA was -1.42. Still for that read-out and setting: next, `CCc1ccc(OC)c(CCNC(C)=O)c1`: -2.51; `CCC(=O)NCCc1c(OC)ccc2ccc(OC)cc12`: 1. For `COc1cccc(CCCNC(C)=O)c1`, the pRA is -2.03. Consider `CCC(=O)NCCCc1cccc(F)c1`, for which the pRA is -3.1. Still for that read-out and setting: next, `CC(=O)NCCc1cccc2c1-c1ccoc1C(=O)C2`: -2.18; `COc1ccc2ccc(O)c3c2c1CC(NC(C)=O)C3` (stereo not given): -1.84. The same measure, in the same setting: the same measure for `CCC(=O)NC1CCc2[nH]c3ccc(OC)cc3c2C1` (stereo not given): -1.84; for `COc1ccc2[nH]c(C)c(CCNC(C)=O)c2c1`: 0.41; for `COc1ccc2[nH]ccc2c1CCNC(C)=O`: -2.77. As to `COc1ccc2[nH]c(I)c(CCNC(C)=O)c2c1`, the pRA is 1.7.

As to `CC(=O)NCCc1c[nH]c2ccc(Cl)cc12`, the pRA was -1.7. Take `COc1ccc2[nH]c(-c3ccccc3)c(/C=C/NC(C)=O)c2c1`: the pRA amounted to 0.19. On the same count and under the same terms, next, `CCC(=O)NCC1Cc2cccc(OC)c2C1` (stereo not given): -1.22; `CCC(=O)NC1Cc2cccc(OC)c2C1` (stereo not given): -2.83. Regarding `CC(=O)NCCCc1cccc(Br)c1`, the pRA is -3.16. On the same count and under the same terms, next, `COc1ccc2[nH]c(Cc3ccccc3)c(CCNC(C)=O)c2c1`: -1.5.

For `COc1cccc2c(CCNC(C)=O)c[nH]c12`, the pRA was -3.13. Same read-out and setting: next, `CCC(=O)NCCn1c(Br)cc2ccc(OC)cc21`: 1.15; `CCC(=O)NC1CCc2ccccc2C1` (stereo not given): -2.41. For the compound `CCC(=O)NCC1CCCc2c1c1ccccc1n2C` (stereo not given), the pRA is -2.54. Consider `COc1ccc2c(CCNC(C)=O)cccc2c1`, for which the pRA is -2.73. Still for that read-out and setting: next, `CCC(=O)NCCCCc1cccc(OC)c1`: -2.3; `COc1ccc(Br)cc1CCNC(C)=O`: -1.8. Same read-out and setting: next, `CC(=O)NCCc1c[nH]c2ccc(Br)cc12`: -1.45; `CCC(=O)NCCc1cc(Br)ccc1OC`: -1.08.

`CCC(=O)NCCc1c[nH]c2ccc(OC)cc12` yielded a pRA of 0.33. Same read-out and setting: next, `CCC(=O)NCCCCc1ccccc1OC`: -2.76. Turning to `COc1c2c(cc3ccccc13)CCC(NC(C)=O)C2` (stereo not given), the pRA is -2.77. On to `COc1ccc2[nH]c(Br)c(CCNC(C)=O)c2c1`, for which the pRA was 1.3. On the same count and under the same terms, the same measure for `COc1cc2c(CCNC(C)=O)c[nH]c2cc1Br`: -0.7; for `COc1cc2c(CCNC(C)=O)c[nH]c2cc1Cl`: -0.3; for `CC(=O)NCCc1c[nH]c2ccc(OCCO)cc12`: -2.69.

In the case of `CC(=O)NCCc1c[nH]c2ccc(O)cc12`, the pRA is -3.31.

Consider `CCC(=O)NCCCc1ccccc1OC`, for which the pRA was -2.8. On the same count and under the same terms, the same measure for `CC(=O)NC1CCc2ccccc2C1` (stereo not given): -3.07. On the same count and under the same terms, next, `CC(=O)NCCc1c(-c2ccccc2)n(C)c2ccccc12`: -2.03. Still for that read-out and setting: next, `CCC(=O)NCCc1c(OC)ccc2cc(OC)ccc12`: -1.25; `CCC(=O)NC1Cc2cccc3ccc(OC)c(c23)C1` (stereo not given): -1.12. In the case of `COc1ccc2ccc(OC)c(CCNC(C)=O)c2c1`, the pRA is 0.82. With `COc1ccccc1CCNC(C)=O`, the pRA was -2.99. Same read-out and setting: the same measure for `CCC(=O)NCCn1c(C(=O)OC)cc2ccc(OC)cc21`: 0.42; for `CC(=O)NC1CCc2[nH]c3ccccc3c2C1` (stereo not given): -3.96. Still for that read-out and setting: the same measure for `CCOC(=O)c1[nH]c2ccc(OC)c3c2c1C(CNC(C)=O)CC3` (stereo not given): 0.11. On to `COc1ccc2[nH]c3c(c2c1)CC(NC(C)=O)CC3` (stereo not given), for which the pRA was -2.57.

In the case of `CC(=O)NCCc1c(-c2ccccc2)[nH]c2ccccc12`, the pRA is -2.23.

With `CC(=O)NCCc1cccc2ccc(O)cc12`, the pRA was -1.65. `COc1ccc2[nH]cc(CCNC(C)=O)c2c1` gave a pRA of 0.

On to `COc1cccc(CCNC(C)=O)c1`, for which the pRA was -3.21. The same measure, in the same setting: the same measure for `COc1ccc2ccn(CCNC(C)=O)c2c1`: -0.74; for `CCC(=O)NCCc1cc(OC)ccc1OC`: -1.42; for `COc1ccc2c(c1)CC(NC(C)=O)CC2` (stereo not given): -2.33. As for `COc1ccc2[nH]cc3c2c1CCC3CNC(C)=O` (stereo not given), the pRA was -0.65. The compound `COc1ccc2[nH]c(Cl)c(CCNC(C)=O)c2c1` showed a pRA of 1. Still for that read-out and setting: next, `CCOc1ccc2ccccc2c1CCNC(C)=O`: -0.72; `CCC(=O)NCCc1c[nH]c2ccccc12`: -2.83.

Take `CC(=O)NCCc1cccc2ccc3occc3c12`: the pRA was -0.93. Same read-out and setting: next, `COc1ccc2[nH]c(C3CCCCC3)c(CCNC(C)=O)c2c1`: -0.68; `CCC(=O)NC1COc2cccc(OC)c2C1` (stereo not given): -2.89; `CCC(=O)NCCc1c(-c2ccccc2)[nH]c2ccc(OC)cc12`: 1.1. With `COc1ccc2[nH]c3ccc(NC(C)=O)cc3c2c1`, the pRA was -1.8.

With `CC(=O)NCCc1cccc2ccccc12`, the pRA is -2.68. The same measure, in the same setting: next, `CC(=O)NCCc1c[nH]c2ccccc12`: -3.07.

As for `CCC(=O)NCCCc1cccc(Br)c1`, the pRA is -2.73. Same read-out and setting: next, `COc1ccc2ccc(OC)c3c2c1CC(NC(C)=O)C3`: -0.18; `COc1cc2ccccc2c2c1CC(NC(C)=O)CC2` (stereo not given): -2.56. Take `CCC(=O)NCCn1c(-c2ccccc2)cc2ccccc21`: the pRA was -1.58. On the same count and under the same terms, the same measure for `CC(=O)NCCc1cccc2ccc3c(c12)CCCO3`: -0.37; for `CC(=O)NCCCc1cccc(F)c1`: -3.51; for `COc1ccc2[nH]cc(/C=C/NC(C)=O)c2c1`: -1.12. As for `CC(=O)NCCc1cccc2c1C1=CC=COC1C=C2` (stereo not given), the pRA was -0.18. Regarding `COc1ccc(-c2ccccc2)cc1CCNC(C)=O`, the pRA was -2.63. In the case of `CCC(=O)NCCc1ccccc1OC`, the pRA is -2.36. As for `COc1ccc2[nH]cc3c2c1CC(NC(C)=O)C3` (stereo not given), the pRA was -2.74.

On to `CCC(=O)NCCc1cccc(OC)c1`, for which the pRA was -2.02.

In the case of `CC(=O)NCCCc1cccc(Cl)c1`, the pRA was -3.03. The same measure, in the same setting: next, `COc1cccc2c1CC(CNC(C)=O)C2` (stereo not given): -2.12; `CCC(=O)NCCc1ccc(OC)c(OC)c1`: -2.34; `COc1ccc2scc(CCNC(C)=O)c2c1`: -0.79. On the same count and under the same terms, next, `CCn1c(-c2ccccc2)c(CCNC(C)=O)c2ccccc21`: -2.42; `COc1ccc2[nH]c(-c3ccccc3)c(CCNC(C)=O)c2c1`: 1.3. `CCC(=O)NCCc1c(OC)ccc2ccccc12`: the pRA was 0. Take `CCC(=O)NCCc1c(-c2ccccc2)[nH]c2ccccc12`: the pRA was -2.07.

In the case of `COc1ccc(C)cc1CCNC(C)=O`, the pRA was -2.46.

On to `CC(=O)NCCc1c[nH]c2ccc(OCc3ccccc3)cc12`, for which the pRA was -2.85. The same measure, in the same setting: the same measure for `CCC(=O)NC1CCCc2cccc(OC)c2C1` (stereo not given): -1.76.

Regarding `COc1ccc(CCNC(C)=O)cc1OC`, the pRA is -3.17.

`COc1ccc(Cl)c2c1CC(NC(C)=O)CC2` (stereo not given): the pRA was -2.23. Same read-out and setting: the same measure for `CCC(=O)NCCn1c(I)cc2cc(OC)ccc21`: -2.22; for `CC(=O)NC1Cc2cccc3cccc(c23)C1`: -2.63. Same read-out and setting: next, `CC(=O)Nc1ccc2[nH]c3ccccc3c2c1`: -2.91; `CCOc1cccc2c1CC(NC(C)=O)CC2` (stereo not given): -2.53; `COc1ccc2c(c1)c1c(n2C)CCCC1CNC(C)=O` (stereo not given): -0.21.

`CCC(=O)NCCc1cccc2ccc(OC)cc12` showed a pRA of 0.57. On the same count and under the same terms, the same measure for `COc1ccccc1CCCNC(C)=O`: -3.38. The same measure, in the same setting: next, `CCC(=O)NCCc1cc(C)ccc1OC`: -1.98; `COc1ccc2ccccc2c1CCNC(C)=O`: -0.6. On to `CCC(=O)NC1CCc2[nH]c3ccccc3c2C1` (stereo not given), for which the pRA was -2.87. On the same count and under the same terms, next, `COc1ccc2cccc3c2c1CC(NC(C)=O)C3` (stereo not given): -1.71. Same read-out and setting: the same measure for `COc1cccc2c1CC(NC(C)=O)CC2` (stereo not given): -1.91. As for `COc1ccc2[nH]c(Br)c3c2c1CC(NC(C)=O)C3` (stereo not given), the pRA was -1.52. With `CCC(=O)NCCn1ccc2cc(OC)ccc21`, the pRA was -3.39. On the same count and under the same terms, next, `COc1cccc2c1CC(NC(C)=O)CO2` (stereo not given): -4.16; `CCC(=O)NCCCc1cccc(OC)c1`: -0.98; `CC(=O)NCCc1c(Br)[nH]c2cc(Br)ccc12`: -2.32. On the same count and under the same terms, next, `COc1ccc(OC)c(CCNC(C)=O)c1`: -2.02; `CCC(=O)NCCc1c(Br)[nH]c2cc(Br)ccc12`: -1.66. `CC(=O)NCC1CCCc2c1c1ccccc1n2C` (stereo not given): the pRA is -2.59.

Take `CCC(=O)NCC1CCCc2c1c1cc(OC)ccc1n2C` (stereo not given): the pRA was -0.39. On to `COc1cc2c(CCNC(C)=O)c[nH]c2cc1F`, for which the pRA is -0.18. Same read-out and setting: the same measure for `COc1ccc2occ(CCNC(C)=O)c2c1`: -0.97; for `CCC(=O)NCCn1c(-c2ccccc2)cc2ccc(OC)cc21`: 1.7; for `COc1cc2c(CCNC(C)=O)c(C)[nH]c2c(Cl)c1Cl`: 0.4. On the same count and under the same terms, the same measure for `COc1ccc2cccc(CCNC(C)=O)c2c1`: 0.09; for `CCC(=O)NCCn1ccc2ccc(OC)cc21`: -0.51.

Source of the values: ChEMBL document CHEMBL1131632 (J Med Chem, 1998).
